Results published in publication PMC9629815, “MK256 is a novel CDK8 inhibitor with potent antitumor activity in AML through downregulation of the STAT pathway” (Oncotarget, 2022).

Legend:
[1] = molecular target: CDK5/p35 (Homo sapiens, UniProt Q00535); assay: CDK panel kinase inhibition; assay type: biochemical; conditions: read-out: Percentage of inhibition (%)
Description: (§1) MK256 was synthesized in house. The kinase profiling of MK256 against various targets was done using the SelectScreen Kinase Profiling Services provided by ThermoFisher Scientific (Walham WA, USA). https://www.thermofisher.com/us/en/home/products-and-services/services/custom-services/screening-and-profiling-services/selectscreen-profiling-service/selectscreen-kinase-profiling-service.html.

[2] = molecular target: CDK9/cyclin K (Homo sapiens, UniProt P50750); assay: CDK panel kinase inhibition; assay type: biochemical; conditions: read-out: Percentage of inhibition (%)
Description: as §1

[3] = molecular target: CDK9/cyclin T1 (Homo sapiens, UniProt P50750); assay: CDK panel kinase inhibition; assay type: biochemical; conditions: read-out: Percentage of inhibition (%)
Description: as §1

[4] = molecular target: CDK5 (Inactive) (Homo sapiens, UniProt Q00535); assay: CDK panel kinase inhibition; assay type: biochemical; conditions: read-out: Percentage of inhibition (%)
Sequence of CDK5 (Inactive) (Q00535 whole entry): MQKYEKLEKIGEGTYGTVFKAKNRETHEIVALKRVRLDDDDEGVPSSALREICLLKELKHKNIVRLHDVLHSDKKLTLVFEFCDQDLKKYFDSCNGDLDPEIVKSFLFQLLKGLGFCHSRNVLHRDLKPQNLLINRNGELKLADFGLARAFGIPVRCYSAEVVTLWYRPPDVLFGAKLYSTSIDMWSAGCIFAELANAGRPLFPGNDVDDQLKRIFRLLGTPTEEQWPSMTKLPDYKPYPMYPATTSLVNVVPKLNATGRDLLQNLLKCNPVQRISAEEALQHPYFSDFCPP
Description: as §1

[5] = molecular target: CDK3/cyclin E1 (Homo sapiens, UniProt Q00526); assay: CDK panel kinase inhibition; assay type: biochemical; conditions: read-out: Percentage of inhibition (%)
Description: as §1

[6] = molecular target: CDK7/cyclin H/MNAT1 (Homo sapiens, UniProt P50613); assay: CDK panel kinase inhibition; assay type: biochemical; conditions: read-out: Percentage of inhibition (%)
Sequence of CDK7/cyclin H/MNAT1 (P50613 whole entry): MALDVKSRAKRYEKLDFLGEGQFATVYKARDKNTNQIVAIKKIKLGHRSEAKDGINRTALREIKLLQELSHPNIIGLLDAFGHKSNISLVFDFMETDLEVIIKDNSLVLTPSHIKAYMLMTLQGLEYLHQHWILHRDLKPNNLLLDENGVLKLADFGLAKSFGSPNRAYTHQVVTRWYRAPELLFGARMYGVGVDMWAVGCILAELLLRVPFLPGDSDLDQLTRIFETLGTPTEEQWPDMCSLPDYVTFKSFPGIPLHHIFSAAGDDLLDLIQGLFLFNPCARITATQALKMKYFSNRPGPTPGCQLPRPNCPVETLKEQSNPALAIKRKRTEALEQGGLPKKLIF
Sequence of CDK7/cyclin H/MNAT1 (P51946 whole entry partner): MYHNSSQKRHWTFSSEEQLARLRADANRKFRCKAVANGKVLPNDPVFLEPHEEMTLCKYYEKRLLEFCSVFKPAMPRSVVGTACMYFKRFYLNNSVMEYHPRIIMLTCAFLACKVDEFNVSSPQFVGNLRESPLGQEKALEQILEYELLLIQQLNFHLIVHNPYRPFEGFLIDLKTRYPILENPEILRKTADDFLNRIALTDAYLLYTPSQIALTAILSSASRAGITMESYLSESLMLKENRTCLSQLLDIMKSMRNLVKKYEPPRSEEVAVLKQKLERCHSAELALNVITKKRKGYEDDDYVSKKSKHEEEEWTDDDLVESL
Sequence of CDK7/cyclin H/MNAT1 (P51948 whole entry partner): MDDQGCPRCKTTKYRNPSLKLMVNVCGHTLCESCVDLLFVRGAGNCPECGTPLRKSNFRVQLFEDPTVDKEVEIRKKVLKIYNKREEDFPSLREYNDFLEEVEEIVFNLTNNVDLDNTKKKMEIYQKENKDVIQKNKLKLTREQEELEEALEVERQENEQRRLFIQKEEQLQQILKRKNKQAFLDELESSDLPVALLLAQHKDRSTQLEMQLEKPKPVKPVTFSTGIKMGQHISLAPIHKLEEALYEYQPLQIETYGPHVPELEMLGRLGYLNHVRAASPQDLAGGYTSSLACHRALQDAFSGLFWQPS
Description: as §1

[7] = molecular target: CDK2/cyclin A (Homo sapiens, UniProt P24941); assay: CDK panel kinase inhibition; assay type: biochemical; conditions: read-out: Percentage of inhibition (%)
Description: as §1

[8] = molecular target: CDK14 (PFTK1)/cyclin Y (Homo sapiens, UniProt O94921); assay: CDK panel kinase inhibition; assay type: biochemical; conditions: read-out: Percentage of inhibition (%)
Description: as §1

[9] = molecular target: CDK1/cyclin B (Homo sapiens, UniProt P06493); assay: CDK panel kinase inhibition; assay type: biochemical; conditions: read-out: Percentage of inhibition (%)
Description: as §1

[10] = molecular target: CDK16 (PCTK1)/cyclin Y (Homo sapiens, UniProt Q00536); assay: CDK panel kinase inhibition; assay type: biochemical; conditions: read-out: Percentage of inhibition (%)
Description: as §1

[11] = molecular target: CDK2/cyclin E1 (Homo sapiens, UniProt P24941); assay: CDK panel kinase inhibition; assay type: biochemical; conditions: read-out: Percentage of inhibition (%)
Description: as §1

[12] = molecular target: CDK18/cyclin Y (Homo sapiens, UniProt Q07002); assay: CDK panel kinase inhibition; assay type: biochemical; conditions: read-out: Percentage of inhibition (%)
Sequence of CDK18/cyclin Y (Q07002 whole entry): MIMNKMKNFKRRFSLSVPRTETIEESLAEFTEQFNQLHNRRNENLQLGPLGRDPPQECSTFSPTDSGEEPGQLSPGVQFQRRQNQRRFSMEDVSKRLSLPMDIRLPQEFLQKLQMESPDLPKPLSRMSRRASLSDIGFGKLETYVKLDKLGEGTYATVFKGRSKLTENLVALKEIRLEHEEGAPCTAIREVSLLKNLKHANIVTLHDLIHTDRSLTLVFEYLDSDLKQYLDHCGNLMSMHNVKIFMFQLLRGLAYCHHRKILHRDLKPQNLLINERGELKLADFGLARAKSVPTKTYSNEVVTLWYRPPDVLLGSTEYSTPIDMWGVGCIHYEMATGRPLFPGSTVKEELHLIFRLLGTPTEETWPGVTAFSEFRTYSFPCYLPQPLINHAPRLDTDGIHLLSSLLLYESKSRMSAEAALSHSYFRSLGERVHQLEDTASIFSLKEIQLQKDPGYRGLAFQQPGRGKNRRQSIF
Sequence of CDK18/cyclin Y (Q8ND76 whole entry partner): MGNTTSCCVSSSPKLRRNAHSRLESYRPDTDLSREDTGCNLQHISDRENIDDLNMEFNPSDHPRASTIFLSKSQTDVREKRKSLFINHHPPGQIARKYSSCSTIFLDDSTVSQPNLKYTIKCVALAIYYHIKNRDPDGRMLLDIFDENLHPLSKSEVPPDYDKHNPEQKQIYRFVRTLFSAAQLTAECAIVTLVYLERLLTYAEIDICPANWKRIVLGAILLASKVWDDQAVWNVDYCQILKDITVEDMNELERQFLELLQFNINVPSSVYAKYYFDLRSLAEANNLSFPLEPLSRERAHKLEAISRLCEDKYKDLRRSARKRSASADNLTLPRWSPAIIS
Description: as §1

[13] = molecular target: CDK13/cyclin K (Homo sapiens, UniProt Q14004); assay: CDK panel kinase inhibition; assay type: biochemical; conditions: read-out: Percentage of inhibition (%)
Sequence of CDK13/cyclin K (Q14004 whole entry): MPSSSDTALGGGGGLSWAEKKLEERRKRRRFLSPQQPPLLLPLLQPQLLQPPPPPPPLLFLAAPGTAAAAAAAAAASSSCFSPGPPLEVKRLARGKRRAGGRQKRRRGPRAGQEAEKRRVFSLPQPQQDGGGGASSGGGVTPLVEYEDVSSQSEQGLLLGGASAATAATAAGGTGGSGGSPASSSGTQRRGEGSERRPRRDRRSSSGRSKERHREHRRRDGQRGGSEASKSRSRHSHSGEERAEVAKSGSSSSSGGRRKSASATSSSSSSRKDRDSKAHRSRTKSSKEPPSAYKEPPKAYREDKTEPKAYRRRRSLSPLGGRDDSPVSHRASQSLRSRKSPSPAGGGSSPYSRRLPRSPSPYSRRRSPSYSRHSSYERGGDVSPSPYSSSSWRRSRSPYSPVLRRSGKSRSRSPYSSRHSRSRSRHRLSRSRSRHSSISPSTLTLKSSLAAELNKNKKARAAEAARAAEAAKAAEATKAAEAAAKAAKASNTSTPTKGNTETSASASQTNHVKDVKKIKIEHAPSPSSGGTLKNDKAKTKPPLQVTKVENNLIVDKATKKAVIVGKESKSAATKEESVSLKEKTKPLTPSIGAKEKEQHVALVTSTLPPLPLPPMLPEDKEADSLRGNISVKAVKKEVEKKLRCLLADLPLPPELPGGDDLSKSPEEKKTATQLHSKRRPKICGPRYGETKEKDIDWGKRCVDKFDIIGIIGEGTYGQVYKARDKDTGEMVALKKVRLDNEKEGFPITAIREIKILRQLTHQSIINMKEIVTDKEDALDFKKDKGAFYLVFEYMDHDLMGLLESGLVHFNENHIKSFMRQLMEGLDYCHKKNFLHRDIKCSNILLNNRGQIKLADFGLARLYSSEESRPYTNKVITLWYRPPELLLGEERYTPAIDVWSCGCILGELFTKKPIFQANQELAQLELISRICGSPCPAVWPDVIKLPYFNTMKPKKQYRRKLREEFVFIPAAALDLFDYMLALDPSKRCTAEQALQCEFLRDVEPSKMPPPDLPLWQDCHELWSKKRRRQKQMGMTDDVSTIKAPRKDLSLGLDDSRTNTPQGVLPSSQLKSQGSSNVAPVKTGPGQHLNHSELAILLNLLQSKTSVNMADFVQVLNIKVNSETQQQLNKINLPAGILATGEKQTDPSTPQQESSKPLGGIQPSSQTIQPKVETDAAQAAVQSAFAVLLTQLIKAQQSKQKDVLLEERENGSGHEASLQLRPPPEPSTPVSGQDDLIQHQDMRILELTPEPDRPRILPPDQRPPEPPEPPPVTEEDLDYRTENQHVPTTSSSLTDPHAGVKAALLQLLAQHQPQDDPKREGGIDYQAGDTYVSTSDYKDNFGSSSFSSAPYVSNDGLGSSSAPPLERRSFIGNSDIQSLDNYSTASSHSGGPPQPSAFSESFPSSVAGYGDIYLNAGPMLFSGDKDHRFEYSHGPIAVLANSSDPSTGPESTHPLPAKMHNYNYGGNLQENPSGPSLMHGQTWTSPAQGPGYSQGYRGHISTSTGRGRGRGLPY
Sequence of CDK13/cyclin K (O75909 whole entry partner): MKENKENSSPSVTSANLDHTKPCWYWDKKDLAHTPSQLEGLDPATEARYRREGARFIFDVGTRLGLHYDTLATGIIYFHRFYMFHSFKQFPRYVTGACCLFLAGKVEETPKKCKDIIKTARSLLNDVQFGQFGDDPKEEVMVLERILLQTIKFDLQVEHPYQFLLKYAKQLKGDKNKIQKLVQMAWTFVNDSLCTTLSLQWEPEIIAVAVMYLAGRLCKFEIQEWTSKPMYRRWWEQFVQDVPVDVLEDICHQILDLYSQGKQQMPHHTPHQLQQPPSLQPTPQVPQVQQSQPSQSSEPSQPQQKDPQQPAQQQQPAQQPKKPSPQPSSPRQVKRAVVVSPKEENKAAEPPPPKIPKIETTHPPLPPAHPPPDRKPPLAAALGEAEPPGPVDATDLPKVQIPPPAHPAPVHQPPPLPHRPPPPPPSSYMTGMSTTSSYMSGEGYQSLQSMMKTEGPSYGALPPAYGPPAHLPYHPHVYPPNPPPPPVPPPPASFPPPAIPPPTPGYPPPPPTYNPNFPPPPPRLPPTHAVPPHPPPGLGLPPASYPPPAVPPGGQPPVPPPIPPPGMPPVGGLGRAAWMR
Description: as §1

[14] = molecular target: CDK4/cyclin D1 (Homo sapiens, UniProt P11802); assay: CDK panel kinase inhibition; assay type: biochemical; conditions: read-out: Percentage of inhibition (%)
Description: as §1

[15] = tested on: MOLM-14 xenograft model; assay: MOLM-14 xenograft efficacy study, single agent; assay type: in vivo, NOD SCID mice; conditions: 50 mg/kg twice a day
Protocol: These favorable properties led us to evaluate the efficacy of MK256 in vivo using the MOLM-14 cell line to examine if the compound could inhibit tumor growth in the MOLM-14 xenograft model. Mice were given 100 ul of 50 mg/kg of MK256 or 100 ul of saline twice a day for 21 days following a 5-day on/ 2-day off schedule. Tumors from two groups of mice were all initially ~ 300 mm^3. Tumors of the mice in the control group continued to grow quickly during the 21-day period, with the average tumor volume reaching 1600 mm^3 on day 22, when we measured tumors for the last time. In the contrast, tumors of the mice in the treatment group shrank to 200 mm^3 on average by day 22 (Figure 9A). Average tumor weight was 0.16 g for the treatment group and 1.85 g for the control group (Figure 9B). […] Tumors collected on day 22 were then processed and analyzed with western blot.
Female NOD SCID mice were purchased from Charles River Laboratories (Wilmington, USA) or bred at the animal facilities of the University of California San Francisco. All animal experiments were carried out under protocols approved by the Institutional Animal Care and Use Committee of the University of California San Francisco. For MOLM-14 model, 200 ul of 1 × 10^6 cells combined with matrigel (v/v, 1:1) were injected subcutaneously in the right flank of NODSCID mice. Tumors were allowed to grow for two weeks to reach a tumor volume about 200 mm^3 before mice were randomly grouped. The animals were treated for three weeks on a 5 days on/2 days off schedule by oral gavage with MK256 (dissolved in saline) alone or in combination with Venetoclax (dissolved in 5% DMSO + 50% PEG 300 + 5% Tween 80 + ddH2O). In the single treatment study, MK256 was administered by mice twice a day at 50 mg/kg. In the combination study, MK256 (10 or 50 mg/kg) and was coadministered with Venetoclax (25 mg/kg) once a day. Tumor volume and body weight were monitored once every 3 days. Tumor volume was calculated as L × W^2/2, where L and W were the length and width of the tumor, respectively.

[16] = molecular target: CYP3A4-TS (Homo sapiens, UniProt P08684); assay: Cytochrome P450 inhibition assay; assay type: in vitro ADME; conditions: 50 uM
[17] = molecular target: CDK8/cyclin C (Homo sapiens, UniProt P49336); assay: SelectScreen kinase profiling, IC50; assay type: biochemical; conditions: read-out: IC50 against CDK8/cyclin C
Description: as §1

[18] = molecular target: CDK19/cyclin C (Homo sapiens, UniProt Q9BWU1); assay: SelectScreen kinase profiling, IC50; assay type: biochemical; conditions: read-out: IC50 against CDK19/cyclin C
Description: as §1

[19] = molecular target: CDK9 (Homo sapiens, UniProt P50750); assay: SelectScreen kinase profiling, IC50; assay type: biochemical
Description: as §1

Sequence of CDK5/p35 (Q00535 whole entry): as the sequence (Q00535 whole entry) above
Sequence of CDK5/p35 (Q15078 2-307 partner limits assumed): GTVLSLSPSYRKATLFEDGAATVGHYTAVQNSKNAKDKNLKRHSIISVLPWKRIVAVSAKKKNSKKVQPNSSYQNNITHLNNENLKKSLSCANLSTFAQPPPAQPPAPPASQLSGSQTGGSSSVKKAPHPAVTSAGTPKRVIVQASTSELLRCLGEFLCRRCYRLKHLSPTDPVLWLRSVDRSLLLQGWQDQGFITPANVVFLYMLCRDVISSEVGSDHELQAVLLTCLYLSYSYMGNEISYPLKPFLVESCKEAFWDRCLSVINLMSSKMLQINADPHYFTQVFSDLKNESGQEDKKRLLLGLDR

**Q.** What does the source list for Nc1nccc2c(Br)cc3cc(C(=O)O)ccc3c12 [MK256]?
**A.** inhibition at 0.2 µM ([1]; 200 nM): 7%; inhibition at 10 µM ([1]; 10 μM): 90%; inhibition at 0.2 µM ([2]; 200 nM): 76%; inhibition at 10 µM ([2]; 10 μM): 101%; inhibition at 0.2 µM ([3]; 200 nM): 82%; inhibition at 10 µM ([3]; 10 μM): 98%; inhibition at 0.2 µM ([4]; 200 nM): 7%; inhibition at 10 µM ([4]; 10 μM): 70%; inhibition at 0.2 µM ([5]; 200 nM): 4%; inhibition at 10 µM ([5]; 10 μM): 82%; inhibition at 0.2 µM ([6]; 200 nM): 9%; inhibition at 10 µM ([6]; 10 μM): 54%; inhibition at 0.2 µM ([7]; 200 nM): 7%; inhibition at 10 µM ([7]; 10 μM): 85%; inhibition at 0.2 µM ([8]; 200 nM): 23%; inhibition at 10 µM ([8]; 10 μM): 97%; inhibition at 0.2 µM ([9]; 200 nM): 34%; inhibition at 10 µM ([9]; 10 μM): 97%; inhibition at 0.2 µM ([10]; 200 nM): 1%; inhibition at 10 µM ([10]; 10 μM): 67%; inhibition at 0.2 µM ([11]; 200 nM): 5%; inhibition at 10 µM ([11]; 10 μM): 70%; inhibition at 0.2 µM ([12]; 200 nM): 37%; inhibition at 10 µM ([12]; 10 μM): 98%; inhibition at 0.2 µM ([13]; 200 nM): 27%; inhibition at 10 µM ([13]; 10 μM): 95%; inhibition at 0.2 µM ([14]; 200 nM): 2%; inhibition at 10 µM ([14]; 10 μM): 23%; expression level of p-STAT1(S727) and p-STAT5(S726) in tumors collected on day 22 [15]: down regulate; average tumor volume on day 22 ([15]; 5-day on/2-day off, 21 days, start ~300 mm^3, control 1600 mm^3): 200 mm^3; average tumor weight ([15]; day 22, control 1.85 g): 0.16 g; average body weight at end of study ([15]; from 23.5 g at start, control 23.4 g to 25.7 g): 23.9 g; cytochrome P450 inhibition [16]: no inhibition; IC50 [17]: 2.5 nM; IC50 [18]: 3.3 nM; fold reduction of activity against CDK9 in comparison to CDK8 ([19]; CDK9 IC50 vs CDK8 IC50): approximately 40 fold; IC50 ([19]; read-out: IC50 against CDK9): 105 nM
